# Measured values published in US8049020B2 (priority 2006, dated 2011).
# pIC50: −log10 of the molar value.
# Legend:
# murine splenocytes = experiment: ConA mitogen-stimulated proliferation of murine splenocytes ([3H]-thymidine incorporation); assay type: cell-based, mouse (BALB/c); conditions: for pIC50: ConA 1 μg/ml, [3H]-thymidine incorporation, nonlinear regression, read-out: IC50 (dose of compound required to inhibit 50% of a proliferating population of murine splenocytes); for Effect on splenocyte proliferation (counts per minute vs concentration, FIG. 1 and 2): ConA-stimulated murine splenocytes, result in words
# Experimental: I. ConA Mitogen-Stimulated Proliferation of Murine Splenocytes
# The concanavalin A (ConA) cell proliferation assay was used to assess the effect of test homoserine lactone (HSL) compounds on T-cell activation and proliferation. Proliferation was assessed by the incorporation of [^3H]-thymidine into DNA. Eight-week-old female BALB/c mice were obtained from Harlan (Bicester, Oxon, UK) and given food and water ad libitum. Splenocyte suspensions were prepared by removing the spleens and placing them into RPMI 1640 medium. The spleens were forced through 70-μm-pore-size wire gauzes using the plunger from a 5-ml syringe to produce a single cell suspension. The cells were pelleted by centrifugation, and erythrocytes were lysed with 0.017 M Tris, 0.144 M ammonium chloride buffer, pH 7.2. Leucocytes were washed twice with RPMI 1640 medium with 2% (vol/vol) foetal calf serum (FCS) and resuspended in complete cell culture medium (CTCM) consisting of RPMI 1640 medium with 5% FCS, 2 mM L-glutamine, and 5×10^−5 M 2-mercaptoethanol. HSL compounds were tested at doubling down dilutions ranging from 1 mM to 0.1 μM in a final volume of 200 μl of CTCM, containing ConA (Sigma, Poole, UK) at 1 μg/ml and 100,000 spleen cells. Following incubation for 48 h at 37° C. in 5% CO2-air, 0.25 μCi[^3H]-thymidine (Amersham) in 10 μl volume made up in RPMI 1640 medium was added and the cells were incubated for a further 24 h. Cells were harvested onto fibreglass filters with a Packard filtermate harvester. After the addition of 25 μl of MicroScint-O (Packard) to each well, the filters were counted with the Packard TopCount scintillation counter.
# Mitogen (Concanavalin A) induced murine splenocyte proliferation was indicated by the incorporation of tritated thymidine into the DNA in the mouse spleen cells as shown by counts per minute using the scintillation counter. The inhibitory effect of an HSL compound being tested on cell proliferation was indicated by a reduction in counts per minute.
# The IC50 value, i.e. the dose of compound (micromolar) required to inhibit 50% of a proliferating population of murine splenocytes, was determined for 4-aza-OdDHL, 4-methyl-4-aza-OdDHL and for the compound N-(2-fluoro-4-aza-3-oxododecanoyl)-L-homoserine lactone (2-fluoro-4-aza-OdDHL).
# [1] = system: E. coli JM109 harbouring the reporter plasmid pSB1075 (P. aeruginosa lasR gene and lasI promoter fused to luxCDABE); experiment: Autoinducer activity: lux-based bioluminescence bioreporter assay; assay type: cell-based; conditions: 10 μM compound; 4 hours at 37° C.; relative to OdDHL
# Experimental: Also determined for each of these compounds was the autoinducer activity as a measure of the ability of the compound to induce light production in a specifically designed bacterial bioreporter system. Autoinducer (A.I.) activity was measured by the ability of the test N-acyl homoserine lactone compound (AHL) to induce bioluminescence in E. coli containing a lux-based bioluminescence reporter plasmid. For detection of a long chain AHL, such as OdDHL, E. coli JM109 harbouring the reporter plasmid pSB1075 was used. This reporter contains the P. aeruginosa IasR gene and IasI promoter fused to IuxCDABE from P. luminescens and preferentially responds to AHLs with acyl chains of 10-14 carbons in length.
# Bioassays were performed in 96 well microliter plates. Briefly, 10 μl of the compound being assessed was placed into a microliter well plate and serially diluted using LB broth to produce a concentration range from 100 μM to 100 fM. Similar dilutions were performed on a synthetic OdDHL and used as a positive control. One hundred microliters of an overnight biosensor strain was added to each well and light emission was measured following 4 hours incubation at 37° C. Light production was assessed as counts per second on Perkin Elmer TopCount apparatus calibrated to measure bioluminescence. Values are expressed as a percentage of the bioluminescence measured after exposure of the bioreporter to OdDHL for four hours at 37° C. Logarithmic regression analysis of the range of synthetic OdDHL dilutions typically returned coefficient of determination values above 0.96.
# murine spleen cells = conditions: Infection and Immunity, vol. 66, No. 1, January 1998; cited from earlier work
# [2] = system: LPS-stimulated adherent murine peritoneal macrophages (TNF-α production); conditions: Infection and Immunity, vol. 66, No. 1, January 1998; cited from earlier work
Structure (SMILES),pIC50 (murine splenocytes),"AI activity (autoinducer activity, percentage of the bioluminescence measured after exposure to OdDHL) [1]","Effect on splenocyte proliferation (counts per minute vs concentration, FIG. 1 and 2) (murine splenocytes)",Effect on ConA mitogen stimulated proliferation of murine spleen cells (murine spleen cells),Effect on TNF-α production by LPS-stimulated adherent murine peritoneal macrophages [2]
"CCCCCCCCNC(=O)C(F)C(=O)N[C@H]1CCOC1=O (stereo partly drawn) [2-fluoro-4-aza-OdDHL, 4-Aza-2-fluoro-3-oxododecanoyl-L-homoserine lactone]",4.66,19.9%,,,
"CCCCCCCCN(C)C(=O)CC(=O)N[C@H]1CCOC1=O [4-methyl-4-aza-OdDHL, N-(4-aza-4-methyl-3-oxododecanoyl)-L-homoserine lactone]",4.84,23.2%,inhibits splenoctye proliferation,,
"CCCCCCCCCC(=O)CC(=O)N[C@H]1CCOC1=O [OdDHL, N-(3-oxododecanoyl) homoserine lactone, reference compound]",4.90,100.0%,inhibits splenocyte proliferation,inhibiting,inhibiting
"CCCCCCCCNC(=O)CC(=O)N[C@H]1CCOC1=O [Example 4-aza-OdDHL, N-(4-aza-3-oxododecanoyl)-L-homoserine lactone]",4.77,2.8%,inhibits splenocyte proliferation,,
